Where “and” joins values, the source holds several entries; their conditions need not be identical. Identical values can stand only once.
Tested on: patients with solid cancer
Assay: Phase 1 clinical trial of JPH203 in patients with solid cancer (safety/DLT and efficacy)
Assay type: in vivo, human
Conditions: for Effective case: single dose then once daily for 7 consecutive days per cycle; for DLT (dose limiting toxicity): between single administration and test at end of cycle 1
Method: The injection is a lyophilized formulation and contains 50 mg of JPH203 and 1200 mg of sulfobutyl ether-β-cyclodextrin in one vial.
Phase 1 Clinical Trial of JPH203 in Patients with Solid Cancer
This clinical trial involved patients with solid cancer. The object of this clinical trial was to evaluate the safety (dose limiting toxicity: DLT) and efficacy of JPH203.
The patient's primary inclusion criteria and exclusion criteria are as follows:
• Patients in advanced stage, who have been confirmed to have solid cancer and who are refractory or intolerant to standard therapy • Patients whose biopsies or pre-existing tissues are available for LAT1 antibody staining • Patients who can be expected to survive 90 days or more from the date of enrollment Exclusion Criteria • Patients with serious or clinically problematic anamnesis or complications • Patients who received chemotherapy, radiation therapy, immunotherapy, or other therapies aimed at tumor shrinkage effect within 4 weeks prior to study drug administration
The dosing schedule is as follows:
On Day 1, a predetermined dosage was administered in a single dose. The dosage was 12 mg/m^2 (4 cases), 25 mg/m^2 (3 cases), 40 mg/m^2 (3 cases), 60 mg/m^2 (6 cases), or 85 mg/m^2 (1 case). One case of the 12 mg/m^2 dosage group was discontinued after only a single dose due to disease progression.
Cycle 1 was started 8 days or more after the single administration, and the injection was administered once daily for 7 consecutive days. Tests including CT were performed on days 28 to 31 from the start date of cycle 1 administration.
Within 28 days of the test day of the previous cycle, the next cycle was started and the injection was administered once daily for 7 consecutive days. Tests were performed on days 28 to 31 from the start date of administration.
DLT was the following symptoms occurring between the single administration and the test at the end of cycle 1 (from the start of cycle 1 to day 28) and for which the investigator (subinvestigator) determined that the relationship with the study drug could not be denied (“related,” “probably related,” “possibly related,” or “unlikely related”). However, the final determination of DLT was made in consultation between the investigator and the sponsor. If necessary, advice from the Data and Safety Monitoring Board was sought upon determining DLT. • 1) Non-hematologic toxicity of grade 3 or more for which the investigator (subinvestigator) determines that it is difficult to continue the administration of the study drug (except for acneform rash, maculo-papular rash, or urticaria of grade 3, and nausea, vomiting, inappetence, diarrhea, constipation, or fatigue that recovers to grade 1 by symptomatic therapy within 7 days after the occurrence) • 2) Hematotoxicity of grade 4 or more or thrombocytopenia of grade 3 or more requiring blood transfusion • 3) Febrile neutropenia
It should be noted that PD (progression) is when the sum of diameters of the target lesion is increased by 20% or more and the absolute value of sum diameters is increased by 5 mm or more compared to the smallest sum diameters measured at or after the baseline.

Nc1cc(COc2c(Cl)cc(C[C@H](N)C(=O)O)cc2Cl)c2oc(-c3ccccc3)nc2c1 [JPH203, O-(5-amino-2-phenylbenzoxazol-7-yl)methyl-3,5-dichloro-L-tyrosine]
cases of no change in tumor size (stable: SD) (12 mg/m^2 dosage group): 1 case | cases of tumor size reduction of 30% or more (partial response: PR) (12 mg/m^2 dosage group): One | cases of no change in tumor size (stable: SD) (25 mg/m^2 dosage group): 1 case | cases of no change in tumor size (stable: SD) (40 mg/m^2 dosage group): 1 case | AST/ALT increase of grade 3 (DLT) (60 mg/m^2 dosage group): observed | cases of no change in tumor size (stable: SD) (60 mg/m^2 dosage group): 1 case | AST/ALT increase of grade 3 (DLT) (85 mg/m^2 dosage group): observed | Effective case (dosage 12 mg/m^2, injection): 2/3 | DLT (dose limiting toxicity) (dosage 12 mg/m^2): No | Effective case (dosage 25 mg/m^2, injection): 1/3 | DLT (dose limiting toxicity) (dosage 25 mg/m^2): No | Effective case (dosage 40 mg/m^2, injection): 1/3 | DLT (dose limiting toxicity) (dosage 40 mg/m^2): No | Effective case (dosage 60 mg/m^2, injection): 1/6 | DLT (dose limiting toxicity) (dosage 60 mg/m^2): Yes | Effective case (dosage 85 mg/m^2, injection): 0/1 | DLT (dose limiting toxicity) (dosage 85 mg/m^2): Yes | cases with significant shrinkage effect in lymph node metastatic lesions (lymph node metastatic lesions, all dosage groups): 3 out of 7 | survival prolonging effects by cancer type (Swimmer plot, FIG. 2) (months of survival for each subject): exhibits survival prolonging effects on bile duct cancer, colorectal cancer, and pancreatic cancer | shrinkage of lymph node metastatic lesions (individual cases) (the 3 responding cases out of 7): 55% and 69.4% and 80% | tumor shrinkage effects by cancer type (Waterfall plot, FIG. 1) (tumor shrinkage ratio for each subject): exhibits tumor shrinkage effects on bile duct cancer, colorectal cancer, esophageal cancer, and breast cancer

Reference: US12458628B2, “Cancer therapeutic” (J-Pharma Co., Ltd., priority 2017, dated 2025)
